Experiment [1] deals with T1, Ubiquitin-conjugating enzyme E2 N (Homo sapiens, UniProt P61088).
T1 sequence (P61088 whole entry): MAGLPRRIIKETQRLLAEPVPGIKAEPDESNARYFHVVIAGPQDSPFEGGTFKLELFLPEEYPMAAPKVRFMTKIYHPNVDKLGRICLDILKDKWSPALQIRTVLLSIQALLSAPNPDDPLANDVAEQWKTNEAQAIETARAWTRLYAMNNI
Briefly: Inhibition of UBE2N (unknown origin) by TR-FRET analysis.

The target in experiment [2] is T1, Ubiquitin-conjugating enzyme E2 N. Briefly: Inhibition of UBE2N (unknown origin).
Experiment [3] in a line: Inhibition of HDM2/p53 (unknown origin) protein-protein interaction. More on the design: species or system Homo sapiens.

pIC50: −log10 of the molar value.

As a reminder, the pIC50 is −log10 of the IC50, conventionally taken in molar units. A low value points to a large IC50.

In experiment [1], `O=C(NCC1CCN(Cc2cccc(Cl)c2)CC1)[C@@H]1CCCN(c2ncnc3c2nc2n3CCCC2)C1` had a pIC50 of 6.11.

As to `C=C1CC(C)(C)[C@@H](/C=C\[C@@H](C)[C@H]2CC[C@H]3[C@@H]4C[C@H](OS(=O)(=O)O)[C@H]5C[C@@H](O)CC[C@]5(C)[C@H]4CC[C@]23C)[C@H]1CC(O)[C@@H](C)[C@H]1CC[C@H]2[C@@H]3C[C@H](OS(=O)(=O)O)[C@H]4C[C@H](OS(=O)(=O)O)[C@@H](OS(=O)(=O)O)C[C@]4(C)[C@H]3CC[C@]12C` (stereo partly specified), in experiment [2], the pIC50 is 6.89.

As to `COC(=O)c1cc2c(cn1)[nH]c1ccc(O)cc12`, in experiment [2], the pIC50 is 4.80.

`C[C@@H](N)[C@@H](O)C/C=C\C/C=C\C/C=C\C/C=C\C/C=C\C/C=C\CCCCCC[C@H](O)[C@@H](C)N` [LEUCETTAMOL A] gave a pIC50 in experiment [3] of 3.82.

Take `CC1=CC(C)(C)[C@@H](/C=C\[C@@H](C)[C@H]2CC[C@H]3[C@@H]4C[C@H](OS(=O)(=O)O)[C@H]5C[C@H](O)[C@@H](OS(=O)(=O)O)C[C@]5(C)[C@H]4CC[C@]23C)[C@H]1CC[C@@H](C)[C@H]1CC[C@H]2[C@@H]3C[C@H](OS(=O)(=O)O)[C@H]4C[C@H](OS(=O)(=O)O)[C@@H](OS(=O)(=O)O)C[C@]4(C)[C@H]3CC[C@]12C` [MANADOSTEROL A]: the pIC50 is 3.80 in experiment [3] and 7.05 in experiment [2].
